According to paper PMC7774954, “Interactomic affinity profiling by holdup assay: Acetylation and distal residues impact the PDZome-binding specificity of PTEN phosphatase” (PLoS ONE, 2020):
pKd: −log10 of the molar value. *1 amine or outer side, *2 acyl side, *3 side chain or, on linkers, in order; H or OH if unused. Where a SMILES comes first, the peptide text is derived from it. The star is where a group is joined. X1 = O=C(CCCC[C@@H]1SC[C@@H]2NC(=O)N[C@@H]21)NCCCOCCOCCOCCCN*; Suc = O=C(CCC(=O)[*:2])[*:1]

Assays:
MAGI2 PDZ 2 = biological target: T1, MAGI2 PDZ 2 (Homo sapiens, UniProt Q86UL8); assay: Holdup assay, MAGI2-2; type: binding; conditions: for BI: MAGI2-2
T1 construct: made in house; host or cells: E. coli
Experimental: (§1) The holdup assay was performed on a Tecan freedom Evo200 robot with 384-well plates in singlicate for the three 11-mer PTEN variants and the 13-mer PTEN peptide as described in [31, 32]. Briefly, prior to interaction assay, 2.5 μL of streptavidin resin was saturated in each well with 20 μL of biotinylated PBM peptides (42 μM) and then washed twice with an excess of free biotin, while the reference resin was incubated only with biotin. Right before the holdup experiment, the PDZ library was spiked with an internal standard of lysozyme. Then, the biotin- or PBM-saturated resin was incubated, each in a distinct well of a 384-well plate, with complete cell lysates diluted so that the concentration of the tag-PDZ present in the crude extract is adjusted at 4 μM. After a sufficient time to reach complex equilibrium (15 min.), a fast and mild filtration step is performed and the tag-PDZ concentrations were measured by capillary electrophoresis instrument (LabChip GXII, PerkinElmer, Massachusets, USA). Standard markers were used to convert migration time into molecular weight on the LabChip software and inappropriate molecular weight markers were corrected or excluded.
(§2) For filtered data, the BI was extracted with the following equation (Eq 1) that estimates the depleted fraction after superimposition of the sample and reference electropherograms: BI=Iref−Ilig/Iref (1) where Iref and Ilig are the intensities of the tag-PDZ peaks measured, for each PDZ domain/PBM peptide interaction pair, in the biotin reference and the PBM electropherograms, respectively.
(§3) BIs were transformed into dissociation constants (KD) using the following formula: KD=([PDZtot]−BI·[PDZtot])·([PBMtot]−BI·[PDZtot])/BI·[PDZtot] (2) where [PDZtot] and [PBMtot] correspond to the total concentrations of the PDZ domain (usually around 4 μM) and the PBM peptide used during the assay. Since the PBMtot concentration in the resin during the holdup assay parameter may differ from one peptide to another and remains unknown, it is impossible to directly convert BI values into KD constants. We systematically determined the KD constants for a subset of PDZ/PBM pairs by competitive FP. […] For each PBM, the average peptide concentration was calculated after outlier rejection based on the absolute distances from the median as compared to three times the standard deviation (3σ rule), with never more than 2 values rejected.

MAST3 PDZ 1 = biological target: T2, MAST3 PDZ 1 (Homo sapiens, UniProt O60307); assay: Holdup assay, MAST3-1; type: binding; conditions: for BI: MAST3-1
T2 construct: made in house; host or cells: E. coli
T2 sequence (O60307 950-1038 limits assumed): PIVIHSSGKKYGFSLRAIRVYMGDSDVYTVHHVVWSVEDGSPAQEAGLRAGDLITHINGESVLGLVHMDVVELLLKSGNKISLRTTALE
Experimental: as §1, §2, §3

DLG2-2 = DLG2-2 (Homo sapiens, UniProt Q15700); assay: Holdup assay, DLG2-2; type: binding
GRIP1-7 = assay: Holdup assay, GRIP1-7; type: binding, human
LIMK2-1 = biological target: T3, LIMK2-1 (Homo sapiens, UniProt P53671); assay: Holdup assay, LIMK2-1; type: binding
T3 sequence (P53671 152-239): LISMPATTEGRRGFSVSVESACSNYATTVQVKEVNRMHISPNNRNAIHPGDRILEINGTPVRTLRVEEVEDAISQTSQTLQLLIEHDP

MAGI3-1 = assay: Holdup assay, MAGI3-1; type: binding, human
MAGI3-5 = biological target: T4, MAGI3-5 (Homo sapiens, UniProt Q5TCQ9); assay: Holdup assay, MAGI3-5; type: binding
T4 sequence (Q5TCQ9 1-1481): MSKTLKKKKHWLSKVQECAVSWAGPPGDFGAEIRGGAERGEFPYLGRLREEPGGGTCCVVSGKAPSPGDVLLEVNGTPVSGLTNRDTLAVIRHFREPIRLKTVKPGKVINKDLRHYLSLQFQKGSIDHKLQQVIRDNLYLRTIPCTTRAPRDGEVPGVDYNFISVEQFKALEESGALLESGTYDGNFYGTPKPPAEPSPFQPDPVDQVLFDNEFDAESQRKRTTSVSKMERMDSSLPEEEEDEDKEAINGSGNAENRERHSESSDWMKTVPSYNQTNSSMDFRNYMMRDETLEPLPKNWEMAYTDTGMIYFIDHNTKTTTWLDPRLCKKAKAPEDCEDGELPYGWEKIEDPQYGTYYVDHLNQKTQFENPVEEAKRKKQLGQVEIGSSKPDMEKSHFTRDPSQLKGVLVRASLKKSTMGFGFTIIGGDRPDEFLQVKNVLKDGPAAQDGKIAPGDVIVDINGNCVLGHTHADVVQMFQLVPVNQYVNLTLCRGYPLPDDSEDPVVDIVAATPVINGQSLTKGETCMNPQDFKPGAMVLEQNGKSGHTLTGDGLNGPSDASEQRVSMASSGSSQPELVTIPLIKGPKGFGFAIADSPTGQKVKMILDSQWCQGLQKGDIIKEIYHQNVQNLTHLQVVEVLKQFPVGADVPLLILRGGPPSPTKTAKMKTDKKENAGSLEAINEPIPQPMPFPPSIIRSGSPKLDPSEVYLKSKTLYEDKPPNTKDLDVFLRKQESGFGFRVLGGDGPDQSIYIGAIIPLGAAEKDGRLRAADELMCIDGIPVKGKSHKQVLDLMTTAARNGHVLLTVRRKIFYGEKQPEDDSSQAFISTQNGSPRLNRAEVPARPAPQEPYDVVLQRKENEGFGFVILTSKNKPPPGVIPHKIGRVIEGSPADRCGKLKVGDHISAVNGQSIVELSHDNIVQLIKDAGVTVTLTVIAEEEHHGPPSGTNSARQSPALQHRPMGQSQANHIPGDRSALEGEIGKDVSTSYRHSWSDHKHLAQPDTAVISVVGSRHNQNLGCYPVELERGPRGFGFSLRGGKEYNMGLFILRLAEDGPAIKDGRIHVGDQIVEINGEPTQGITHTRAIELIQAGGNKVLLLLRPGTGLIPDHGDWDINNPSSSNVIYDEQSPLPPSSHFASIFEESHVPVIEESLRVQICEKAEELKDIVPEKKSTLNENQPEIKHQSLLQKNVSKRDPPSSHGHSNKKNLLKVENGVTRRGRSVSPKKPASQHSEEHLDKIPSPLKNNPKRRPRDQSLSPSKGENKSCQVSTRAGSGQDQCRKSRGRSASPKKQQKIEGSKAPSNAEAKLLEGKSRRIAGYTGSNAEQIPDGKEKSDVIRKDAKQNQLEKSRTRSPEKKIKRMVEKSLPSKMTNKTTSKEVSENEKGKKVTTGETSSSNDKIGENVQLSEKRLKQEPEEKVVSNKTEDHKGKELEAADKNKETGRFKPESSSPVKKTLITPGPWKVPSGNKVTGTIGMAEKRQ

T1 sequence (Q86UL8 426-510 limits assumed): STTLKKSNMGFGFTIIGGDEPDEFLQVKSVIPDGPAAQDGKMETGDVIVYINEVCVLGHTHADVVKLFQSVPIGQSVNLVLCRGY
Sequence of DLG2-2 (Q15700 193-280): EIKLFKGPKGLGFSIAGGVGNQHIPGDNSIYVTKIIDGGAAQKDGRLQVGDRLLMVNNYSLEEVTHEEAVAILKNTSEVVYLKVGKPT

Row | Structure (SMILES) | pKd (MAGI2 PDZ 2) | BI (MAGI2 PDZ 2) | pKd (MAST3 PDZ 1) | BI (MAST3 PDZ 1) | BI (DLG2-2) | pKd (DLG2-2) | BI (GRIP1-7) | LogKD (GRIP1-7) | BI (LIMK2-1) | LogKD (LIMK2-1) | BI (MAGI3-1) | LogKD (MAGI3-1) | BI (MAGI3-5) | LogKD (DLG2-2) | LogKD (MAGI3-5) | pKd (MAGI3-5)
1 | CC[C@H](C)[C@H](NC(=O)[C@H](CCC(N)=O)NC(=O)[C@@H](NC(=O)[C@H](Cc1c[nH]cn1)NC(=O)[C@H](CCC(N)=O)NC(=O)[C@H](CC(=O)O)NC(=O)[C@H](CCC(=O)O)NC(=O)[C@H](CC(=O)O)NC(=O)CCC(=O)NCCCOCCOCCOCCCNC(=O)CCCC[C@@H]1SC[C@@H]2NC(=O)N[C@@H]21)[C@@H](C)O)C(=O)N[C@H](C(=O)N[C@@H](CCCNC(=N)N)C(=O)N[C@H](C(=O)O)C(C)C)[C@@H](C)O [PTEN_KR] ({X1-Suc}-DEDQHTQITRV-OH) | 4.53 | 0.443 | 4.09 | 0.228 | 0.312 | 4.28 | -0.06 | 3.655 | -0.042 | 3.655 | -0.004 | 3.655 | 0.165 |  |  | 
2 | CC[C@H](C)[C@H](NC(=O)[C@H](CCC(N)=O)NC(=O)[C@@H](NC(=O)[C@H](Cc1c[nH]cn1)NC(=O)[C@H](CCC(N)=O)NC(=O)[C@H](CC(=O)O)NC(=O)[C@H](CCC(=O)O)NC(=O)[C@H](CC(=O)O)NC(=O)[C@H](Cc1ccccc1)NC(=O)[C@@H]1CCCN1C(=O)CCC(=O)NCCCOCCOCCOCCCNC(=O)CCCC[C@@H]1SC[C@@H]2NC(=O)N[C@@H]21)[C@@H](C)O)C(=O)N[C@H](C(=O)N[C@@H](CCCCN)C(=O)N[C@H](C(=O)O)C(C)C)[C@@H](C)O [PTEN_13] ({X1-Suc}-PFDEDQHTQITKV-OH) |  | 0.082 |  | -0.161 | 0.054 |  | 0.015 |  | 0.152 |  | -0.006 |  | […] | […] | […] | 
3 | CC[C@H](C)[C@H](NC(=O)[C@H](CCC(N)=O)NC(=O)[C@@H](NC(=O)[C@H](Cc1c[nH]cn1)NC(=O)[C@H](CCC(N)=O)NC(=O)[C@H](CC(=O)O)NC(=O)[C@H](CCC(=O)O)NC(=O)[C@H](CC(=O)O)NC(=O)CCC(=O)NCCCOCCOCCOCCCNC(=O)CCCC[C@@H]1SC[C@@H]2NC(=O)N[C@@H]21)[C@@H](C)O)C(=O)N[C@H](C(=O)N[C@@H](CCCCNC(C)=O)C(=O)N[C@H](C(=O)O)C(C)C)[C@@H](C)O [PTEN_Ac] | 4.26 | 0.325 | 4.07 | 0.242 | 0.329 | 4.26 | -0.071 | 3.605 | -0.087 | 3.605 |  |  | 0.21 |  |  | 3.99
4 | CC[C@H](C)[C@H](NC(=O)[C@H](CCC(N)=O)NC(=O)[C@@H](NC(=O)[C@H](Cc1c[nH]cn1)NC(=O)[C@H](CCC(N)=O)NC(=O)[C@H](CC(=O)O)NC(=O)[C@H](CCC(=O)O)NC(=O)[C@H](CC(=O)O)NC(=O)CCC(=O)NCCCOCCOCCOCCCNC(=O)CCCC[C@@H]1SC[C@@H]2NC(=O)N[C@@H]21)[C@@H](C)O)C(=O)N[C@H](C(=O)N[C@@H](CCCCN)C(=O)N[C@H](C(=O)O)C(C)C)[C@@H](C)O [PTEN_11] |  | 0.18 |  | 0.122 | 0.168 |  | -0.03 | 3.519 | 0.05 | 3.519 | -0.011 | 3.519 | 0.097 |  | 3.519 | 
